The numbers were not newly measured in patent US20260324642A1, “COMPOSITION, PEST CONTROL PREPARATION, AND PEST CONTROL METHOD” (priority 2023, published 2026), which cites them from elsewhere.

For this series the following is noted: known activity, background art.

Consider `C/C=C(/C)C(=O)O[C@H]1CC[C@@]2(C)[C@@H]3CC[C@H]4[C@]5(O)C[C@H](O)[C@@]6(O)[C@@H](CN7C[C@@H](C)CC[C@H]7[C@@]6(C)O)[C@]5(O)C[C@@]42O[C@]13O` [Cevadine], for which the insecticidal activity result is given as “known to have insecticidal activity”.

As for `COc1ccc(C(=O)O[C@H]2CC[C@@]3(C)[C@@H]4CC[C@H]5[C@]6(O)C[C@H](O)[C@@]7(O)[C@@H](CN8C[C@@H](C)CC[C@H]8[C@@]7(C)O)[C@]6(O)C[C@@]53O[C@]24O)cc1OC` [Veratridine], the insecticidal activity entry was “known to have insecticidal activity”.
